In series [1] the target is Free fatty acid receptor 1 (Homo sapiens, UniProt O14842). As to the kind of experiment: Agonist activity at human FFA1 receptor expressed in CHO cells assessed as increase in intracellular calcium levels measured for 1 hr by Fluo 4-AM dye based FLIPR assay. The format is functional, cell-based. In general terms: A change in cytosolic calcium serves as a functional read-out for many receptors and channels.

Series [2] in a line: Apparent volume of distribution during terminal phase in 12 hrs fasted Sprague-Dawley rat at 3 mg/kg, po administered as single dose measured up to 24 hrs by LC-PDA-MS/MS analysis. Format: ADME, organism-based. The note with it: in vivo.
Series [3] in a line: Cmax in 12 hrs fasted Sprague-Dawley rat at 3 mg/kg, po administered as single dose measured up to 24 hrs by LC-PDA-MS/MS analysis. The following applies: in vivo. The format is ADME, organism-based. The arrangement: dose 3 mg/kg, route oral.
A short description of series [4]: AUC (0 to 24 hrs) in 12 hrs fasted Sprague-Dawley rat at 3 mg/kg, po administered as single dose measured up to 24 hrs by LC-PDA-MS/MS analysis. The format is ADME, organism-based. The arrangement: time < 24 hr, dose 3 mg/kg, route oral. The following applies: in vivo.
Series [5] can be described thus: Half life in 12 hrs fasted Sprague-Dawley rat at 3 mg/kg, po administered as single dose measured up to 24 hrs by LC-PDA-MS/MS analysis. The following applies: in vivo. Format: ADME, organism-based.
The test system of series [6] is Mus musculus. As to the kind of experiment: Induction of hypoglycemia in fasting normal ICR mouse assessed as reduction in blood glucose level at 60 mg/kg, po measured up to 3 hrs post dose. The format is organism-based. The note with it: in vivo.
The test system of series [7] is Mus musculus. Description: Induction of hypoglycemia in fasting normal ICR mouse assessed as reduction in blood glucose level at 15 mg/kg, po measured up to 3 hrs post dose. Format: organism-based. The following applies: in vivo.
Series [8] has as its system Mus musculus. As to the kind of experiment: Antidiabetic activity in normal ICR mouse assessed as reduction in blood glucose level at 20 mg/kg, po administered 30 mins before oral glucose load by OGTT assay. Format: functional, organism-based.
The subject of series [9] is Mus musculus. As to the kind of experiment: Antidiabetic activity in normal ICR mouse assessed as reduction in blood glucose AUC (0 to 120 mins) at 20 mg/kg, po administered 30 mins before oral glucose load by OGTT assay. Format: functional, organism-based.

Calls of active or inactive are those of the source. No cut-off for these calls is given here.

Chain of Free fatty acid receptor 1 (O14842 whole entry): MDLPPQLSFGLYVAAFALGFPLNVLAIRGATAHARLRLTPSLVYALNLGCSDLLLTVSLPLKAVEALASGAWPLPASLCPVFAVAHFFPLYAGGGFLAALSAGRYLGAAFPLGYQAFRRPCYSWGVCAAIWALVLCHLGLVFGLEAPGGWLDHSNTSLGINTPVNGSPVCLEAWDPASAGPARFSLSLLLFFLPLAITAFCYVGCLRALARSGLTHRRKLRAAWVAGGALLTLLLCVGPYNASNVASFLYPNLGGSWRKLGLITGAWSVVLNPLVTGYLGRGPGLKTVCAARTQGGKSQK

Consider `[2H]C([2H])(Cc1ccc(OCc2cccc(-c3c(C)noc3C)c2)cc1F)C(=O)O`, for which, in series [1], the EC50 (in general, the concentration needed to bring the measured effect to its halfway point) is 37.4 nM. In addition, the Vz/F in [2] worked out at 0.049 L/kg. Moreover, the highest level in series [3] (Cmax) was 2910 ng/mL. Further, the AUC (as a rule, the area under the concentration-time curve, a measure of exposure) in series [4] turned out to be 46492.43 ng·h/mL. The t1/2 in [5] is 3.14 h. Also, the Activity result in the series with Mus musculus [6] was “Non-Toxic”.
For `COc1ccc(Cl)cc1C(=O)NCCc1ccc(S(=O)(=O)NC(=O)NC2CCCCC2)cc1` [GLYBURIDE], the Activity entry in the series on Mus musculus [7] is on record as “Toxic”.
`[2H]C([2H])(Cc1ccc(OCc2cccc(-c3c(C)noc3C)c2)cc1)C(=O)O`: in [1], the EC50 came out at 28.9 nM. For the same compound, in [2], the Vz/F amounted to 0.057 L/kg. In series [3], the Cmax (usually the highest concentration seen after dosing) came to 2360 ng/mL. This compound also showed an AUC in [4] of 31694.16 ng·h/mL. The compound further had a t1/2 in series [5] of 2.58 h.
As to `Cc1noc(C)c1-c1cccc(COc2ccc(CCC(=O)O)c(F)c2)c1`, the concentration for a half-maximal effect (EC50) in series [1] was 32.5 nM. Moreover, the Vz/F in series [2] worked out at 0.074 L/kg. In series [3], this compound gave a Cmax of 1730 ng/mL. In series [4], the AUC came to 14063.25 ng·h/mL. This compound displayed a t1/2 in series [5] of 1.75 h. Also, the result in the series with Mus musculus [8] and with Mus musculus [9] was inactive. Besides, the outcome in the series with Mus musculus [8] (tested as the 2H-labelled form) and in the series with Mus musculus [9] (tested as the 2H-labelled form) was Active.

Source of the values: ChEMBL document CHEMBL4339214, “Design, synthesis and biological activity of deuterium-based FFA1 agonists with improved pharmacokinetic profiles” (Bioorg Med Chem Lett, 2019).
